The results in this text go back to paper PMC12703677, “Discovery of a Copper-Binding Carbohydrate-Binding Module Regulating the Activity of Lytic Polysaccharide Monooxygenases” (Journal of the American Chemical Society, 2025).

Assay [1] concerns the target T1, ScLPMO10C (ScLPMO10C^(MMH)) (Streptomyces coelicolor, UniProt Q9RJY2).
T1 construct: gene celS2; full-length mature AA10-linker-CBM2, native signal peptide replaced by SmLPMO10A signal peptide (cleaved; N-terminal His35), E. coli periplasm, untagged, Cu(II)-loaded
As to the kind of experiment: fluorescence stopped-flow, single-turnover reduction of LPMO-Cu(II). The format is biochemical. As to conditions: reductant; 50 mM sodium phosphate pH 6.0, 25 °C, anaerobic, no polysaccharide; second-order rate constant only, no Km.

For assay [2], the target named is T2, ScAA10 (CD; catalytic domain of ScLPMO10C) (Streptomyces coelicolor, UniProt Q9RJY2).
T2 construct: gene celS2; N-terminal His35), SmLPMO10A signal peptide cleaved, E. coli periplasm, untagged, Cu(II)-loaded
T2 sequence (Q9RJY2 entry or part of it): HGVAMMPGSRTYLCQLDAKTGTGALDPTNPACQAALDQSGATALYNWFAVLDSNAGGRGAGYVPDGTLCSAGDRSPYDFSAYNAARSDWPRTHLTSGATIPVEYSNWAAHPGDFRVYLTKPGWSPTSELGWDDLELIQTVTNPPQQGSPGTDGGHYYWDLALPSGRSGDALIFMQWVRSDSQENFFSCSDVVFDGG
Described as above. It is filed as biochemical. The note with it: reductant; 50 mM sodium phosphate pH 6.0, 25 °C, anaerobic, no polysaccharide; second-order rate constant only, no Km.

T1 sequence (Q9RJY2 entry or part of it): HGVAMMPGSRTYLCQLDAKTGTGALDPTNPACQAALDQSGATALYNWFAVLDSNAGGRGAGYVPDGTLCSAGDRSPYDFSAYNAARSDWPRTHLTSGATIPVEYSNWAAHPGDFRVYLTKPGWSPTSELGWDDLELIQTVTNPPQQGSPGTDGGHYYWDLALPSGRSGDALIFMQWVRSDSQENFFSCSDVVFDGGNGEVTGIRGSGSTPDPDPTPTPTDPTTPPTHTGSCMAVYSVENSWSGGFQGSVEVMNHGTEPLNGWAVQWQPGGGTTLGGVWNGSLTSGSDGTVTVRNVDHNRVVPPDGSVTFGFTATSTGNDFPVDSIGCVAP

Regarding `O=C1O[C@H]([C@@H](O)CO)C(O)=C1O` [ascorbic acid], the “k AscA” value in assay [1] and in assay [2] was “the two variants exhibited identical reduction rates” in each case.
